Experimental data taken from BindingDB's records for doi:10.1176/jnp.8.2.223 (1996).
pKi: −log10 of the molar value. Where “and” joins values, the source holds several entries; their conditions need not be identical. Equal entries are not always repeated. Structures can show the parent of a compound that is named as a salt.

Each compound was assayed against D(1A) dopamine receptor (Bos taurus, UniProt Q95136).
Sequence of D(1A) dopamine receptor (Q95136 whole entry): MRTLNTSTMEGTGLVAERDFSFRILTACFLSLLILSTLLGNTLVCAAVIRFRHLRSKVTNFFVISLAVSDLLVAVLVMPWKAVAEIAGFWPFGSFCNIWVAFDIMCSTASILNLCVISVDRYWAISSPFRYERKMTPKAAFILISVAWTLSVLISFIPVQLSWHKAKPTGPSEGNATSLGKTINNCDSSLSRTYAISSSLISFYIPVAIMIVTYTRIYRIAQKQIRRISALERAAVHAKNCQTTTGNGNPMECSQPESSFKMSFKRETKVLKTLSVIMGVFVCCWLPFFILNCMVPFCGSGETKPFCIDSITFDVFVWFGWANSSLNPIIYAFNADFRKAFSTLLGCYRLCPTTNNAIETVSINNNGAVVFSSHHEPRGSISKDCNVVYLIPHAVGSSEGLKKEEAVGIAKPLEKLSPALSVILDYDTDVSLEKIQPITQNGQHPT
In the case of O=C(CCCN1CCC(O)(c2ccc(Cl)cc2)CC1)c1ccc(F)cc1 [4-[4-(4-Chloro-phenyl)-4-hydroxy-piperidin-1-yl]-1-(4-fluoro-phenyl)-butan-1-one;propionate(HCl)], the pKi was 6.19.
Work on O=c1[nH]c2ccccc2n1C1CCN(CCCC(c2ccc(F)cc2)c2ccc(F)cc2)CC1 [1-(1-(4,4-bis(4-fluorophenyl)butyl)piperidin-4-yl)-1H-benzo[d]imidazol-2(3H)-one] yielded a pKi of 5.39.

These compounds were tested against D(2) dopamine receptor (Bos taurus, UniProt P20288).
Sequence of D(2) dopamine receptor (P20288 whole entry): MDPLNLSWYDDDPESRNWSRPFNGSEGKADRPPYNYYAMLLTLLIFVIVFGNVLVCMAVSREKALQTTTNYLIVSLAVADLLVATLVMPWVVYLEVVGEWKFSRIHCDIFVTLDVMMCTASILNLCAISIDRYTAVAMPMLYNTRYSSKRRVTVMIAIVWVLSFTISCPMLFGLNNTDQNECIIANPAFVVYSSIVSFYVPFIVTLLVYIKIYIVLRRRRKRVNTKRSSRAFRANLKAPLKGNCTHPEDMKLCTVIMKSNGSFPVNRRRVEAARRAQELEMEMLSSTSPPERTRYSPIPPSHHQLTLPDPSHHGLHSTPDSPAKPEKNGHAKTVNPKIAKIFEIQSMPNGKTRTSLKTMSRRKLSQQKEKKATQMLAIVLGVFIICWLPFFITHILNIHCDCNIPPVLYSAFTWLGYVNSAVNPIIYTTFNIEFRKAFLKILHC
With OCCN1CCN(CC/C=C2/c3ccccc3Sc3ccc(C(F)(F)F)cc32)CC1 [(cis) 2-{4-[3-(2-Trifluoromethyl-thioxanthen-9-ylidene)-propyl]-piperazin-1-yl}-ethanol(Flupentixol)] the pKi was 8.96.
O=c1[nH]c2ccccc2n1C1CCN(CCCC(c2ccc(F)cc2)c2ccc(F)cc2)CC1 [1-(1-(4,4-bis(4-fluorophenyl)butyl)piperidin-4-yl)-1H-benzo[d]imidazol-2(3H)-one] showed a pKi of 9.10.
With CN1CCN(CC/C=C2/c3ccccc3Sc3ccc(S(=O)(=O)N(C)C)cc32)CC1 [MLS000028463] the pKi was 8.85.
In the case of OCCN1CCN(CCCN2c3ccccc3Sc3ccc(C(F)(F)F)cc32)CC1 [2-[4-[3-[2-(trifluoromethyl)phenothiazin-10-yl]propyl]piperazin-1-yl]ethanol;hydrochloride], the pKi was 8.92 and 9.30.
